Where two headings read alike, the source gives them in different places.
Columns and labels:
Tyrosinase [1] = test system: Tyrosinase; design: method as in PMID 23134995; conditions: cited from earlier work
Text: Neuropeptides with biological functions were called neuropeptides if they were secreted by neural tissues and involved in nervous system functions, which were characterized by low content, high activity, and extensive and complex functions (including food intake regulation, improved metabolism, neural regulation and reproduction, etc.). However, there have been few reports on the pigmentation regulation of neuropeptide. One important function of BommoOK, as a multifunctional neuropeptide, was pigmentation regulation. In silkworm q-l (quail like) mutants, BommoOK was a losing function, a ...

Tyrosinase [2] = conditions: for Inhibitory rate on tyrosinase, Average: average over 5, 0.1, 0.05 and 0.025 mmol/L; for highest inhibition rate on tyrosinase: highest rate among the tested concentrations; for effect on tyrosinase reaction course (in words): absorbance time course 10-180 s compared with negative control completed at 60 s
Method: The peptide solution (5 mmol/L) was then diluted 50-fold (0.1 mmol/L), 100-fold (0.05 mmol/L), and 200-fold (0.025 mmol/L), respectively, and then the inhibitory rate was calculated after a 5 min reaction.

[3] = test system: UV-irradiated guinea pig skin; assay type: in vivo, guinea pig (Cavia porcellus); conditions: peptide solution 5 mmol/L painted on UV-irradiated back skin, sections after 24 h; for pathological tissue findings (Masson staining and HE staining): versus deionized water side
Method: Model preparation: Six adult healthy guinea pigs with normal development were selected. The fur on both sides of the back was shaved to expose a circular area with a diameter of 4 cm. Ultraviolet (UV) irradiation was performed at 10 cm from the skin in the exposed area, once daily with a dose of 700 mJ/cm^2, and continued for 7 consecutive days, with a cumulative dose of […]. A metal halide lamp was used as the light source with a power of 1000 W and a peak spectrum of 360 nm, including 70% long-wave ultraviolet (UVA) and 4% medium-wave ultraviolet (UVB). After UV-irradiation treatment, the peptide solution (5 mmol/L) was painted to the right, and an equal amount of deionized water was applied to the left. Tissue sections and staining observations were performed after 24 h.
Sectioning: Approximately 0.4 cm^3 of subcutaneous tissue from the drug administration area was excised, cleaned with physiological saline, and fixed. After dehydration (DIAPATH, Donatello, Milan, Italy) and hardening treatment, it was subsequently made transparent and subjected to a wax immersion treatment. After paraffin embedding (Wuhan Junjie Electronics Co., Ltd., JB-P5, Wuhan, China), the tissue was sectioned using a microtome (Shanghai Leica Instrument Co., Ltd., RM2016, Shanghai, China). The arranged sections were organized (Zhejiang Jinhua Kedi Instrument Equipment Co., Ltd., KD-P, Jinhua, China) for HE staining and Masson staining.
HE staining: The paraffin sections were placed in xylene I for 20 min, xylene II for 20 min, anhydrous ethanol I for 5 min, anhydrous ethanol II for 5 min, and 75% alcohol for 5 min for dewaxing treatment; after washing with water, they were placed into hematoxylin staining solution for 3–5 min, differentiated with differentiation solution after washing, and returned to blue with bluing solution after washing; after rinsing with running water, they were dehydrated with 85% and 95% alcohol solutions for 5 min each successively; after immersed into eosin staining solution for 5 min, they were placed in anhydrous ethanol I for 5 min, anhydrous ethanol II for 5 min, anhydrous ethanol III for 5 min, xylene I for 5 min, and xylene II for 5 min for transparency treatment. After, they were sealed with neutral gum, they were examined (Nikon Eclipse E100, Tokyo, Japan) and imaged (Nikon DS-U3, Tokyo, Japan) using a microscope.
Masson staining: The paraffin sections were placed in xylene I for 20 min, xylene II for 20 min, anhydrous ethanol I for 5 min, anhydrous ethanol II for 5 min, and 75% alcohol for 5 min for dewaxing treatment; after washing with water, they were immersed into Masson A solution overnight, washed with water, then immersed into a mixture of Masson B and Masson C for 1 min, washed with water, then differentiated using an alcohol solution containing 1% hydrochloric acid. Then, they were washed with water, then immersed into Masson D solution for 6 min, washed with water, then immersed into Masson E solution for 1 min, drained, and directly immersed into Masson F solution for 30 s. Subsequently, the sections were rinsed with 1% glacial acetic acid for differentiation, dehydrated with anhydrous ethanol three times for 5 min each, treated with xylene for transparency for 5 min, and then sealed with neutral gum. The sections were examined (Nikon Eclipse E100, Japan) and imaged (Nikon DS-U3, Japan) using a microscope.

B. mori = conditions: CRISPR/cas9 tool and mature peptide subcutaneous injection; cited from earlier work
[4] = 0.025 mmol/L, after 5 min reaction
[5] = 0.05 mmol/L, after 5 min reaction
[6] = 0.1 mmol/L, after 5 min reaction

| Compound | whitening effect relative to β-arbutin (Tyrosinase [1]) | Inhibitory rate on tyrosinase (Tyrosinase [2]; [4]) | Inhibitory rate on tyrosinase (Tyrosinase [2]; [5]) | Inhibitory rate on tyrosinase (Tyrosinase [2]; [6]) | Inhibitory rate on tyrosinase (Tyrosinase [2]; 5 mmol/L, after 5 min reaction) | Inhibitory rate on tyrosinase, Average (Tyrosinase [2]; after 5 min reaction) | highest inhibition rate on tyrosinase (Tyrosinase [2]) | duration of whitening effect (Tyrosinase [1]) | effect on tyrosinase reaction course (in words) (Tyrosinase [2]) | inhibition rate on tyrosinase, all concentrations (Tyrosinase [2]; all concentrations (5, 0.1, 0.05, 0.025 mmol/L), after 5 min reaction) | pathological tissue findings (Masson staining and HE staining) [3] | melanin inhibition (melanocytes, melanin granules) ([3]; Masson and HE staining) | pigmentation inhibition in B. mori (B. mori) |
| --- | --- | --- | --- | --- | --- | --- | --- | --- | --- | --- | --- | --- | --- |
| Oc1ccc(OC2CCCCO2)cc1 (stereo not drawn) [deoxyarbutin] | more than 350 times |  |  |  |  |  |  |  |  |  |  |  |  |
| OC[C@H]1O[C@@H](Oc2ccc(O)cc2)[C@H](O)[C@@H](O)[C@@H]1O [β-Arbutin, reference compound] |  | 32.70±0.33% | 53.61±1.27% | 74.31±1.81% | 72.50±0.12% | 58.28±16.85% | more than 70% | more than 8 weeks |  |  |  |  |  |
| EARHSGYLPYQMF [BommoOKA_type4, mature peptide of silkworm neuropeptide Orcokinin, […]] |  | 13.96±0.21% | 17.02±0.11% |  | 11.28±0.22% | 15.49±3.17% | 19.69% |  | a certain inhibitory effect on tyrosinase | greater than 10% | inflammatory factors were reduced, and epidermal hyperplasia improved |  |  |
| FYHLYGQNFLDIDSPVSSFD [BommoOKA_type3] |  | 5.54±0.2% |  | 6.50±0.17% | 9.37±0.34% | 8.27±2.42% |  |  | a certain inhibitory effect on tyrosinase |  |  |  |  |
| NFDEIDRSSLNTFV [BommoOKA_type1, mature peptide of silkworm neuropeptide Orcokinin, […]] |  | 5.16±0.14% | 6.88±0.19% | 2.87±0.02% | 4.02±0.07% | 4.73±1.48% |  |  | seemed to tend to accelerate tyrosinase |  | loosely arranged tissues | many stretched melanin granules emerged |  |
| NFDEIDRSSMPFPYAI [BommoOKA_type2, mature peptide of silkworm neuropeptide Orcokinin, […]] |  | 6.69±0.15% | 6.12±0.09% | 5.16±0.09% |  | 7.02±1.88% |  |  |  |  | Many inflammatory cells |  | key for pigmentation inhibition |
| NLDSLGGANF [BommoOKB_type1, mature peptide of silkworm neuropeptide Orcokinin, […]] |  | greater than 10% |  | 8.6±1.39% | -4.02±0.82% | 9.32±8.66% | 19.69% |  | a certain inhibitory effect on tyrosinase |  | significant epidermal hyperplasia |  |  |
| YDYISPYG [BommoOKA_type5, mature peptide of silkworm neuropeptide Orcokinin, YDYISPYG] |  | -2.68±1.07% | 3.25±1.57% | -0.19±1.08% | 5.93±0.94% | 1.58±3.28% |  |  |  |  | inflammatory factors were reduced, and epidermal hyperplasia improved |  |  |
